Measurements from BindingDB's records for doi:10.1111/cbdd.12836 (Korea Institute of Science and Technology, 2017).
pIC50: −log10 of the molar value.

Columns and labels:
[1] = target: RAF proto-oncogene serine/threonine-protein kinase (Homo sapiens, UniProt P04049); experiment: In vitro Enzyme Assay; conditions: pH 7.5; 25 °C
Experimental: (§1) Reaction Biology Corporation Kinase HotSpotSM service: In a final reactionvolume of 25 μL, kinase (5-10 mU) is incubated with 25 mM Tris pH 7.5, 0.02 mM ethylene glycol tetracetic acid (EGTA), 0.66 mg/mL myelin basic protein, […], and [γ33P-ATP] (specific activity approx. 500 c.p.m./pmol,concentration as required). The reaction is initiated by the addition of the Mg-ATP mix. After incubation for 40 min at room temperature, the reaction is stopped by the addition of 5 μL of a 3% phosphoric acid solution. About 10 μL ofthe reaction solution is then spotted onto a P30 filtermat and washed three times for 5 min in 75 mM phosphoric acid and once in methanol prior to drying and scintillation counting.

[2] = target: Serine/threonine-protein kinase B-raf [V600E] (Homo sapiens, UniProt P15056, V600E); experiment: In vitro Enzyme Assay; conditions: pH 7.5; 25 °C
Sequence of Serine/threonine-protein kinase B-raf [V600E] (P15056 2-766 V600E limits assumed): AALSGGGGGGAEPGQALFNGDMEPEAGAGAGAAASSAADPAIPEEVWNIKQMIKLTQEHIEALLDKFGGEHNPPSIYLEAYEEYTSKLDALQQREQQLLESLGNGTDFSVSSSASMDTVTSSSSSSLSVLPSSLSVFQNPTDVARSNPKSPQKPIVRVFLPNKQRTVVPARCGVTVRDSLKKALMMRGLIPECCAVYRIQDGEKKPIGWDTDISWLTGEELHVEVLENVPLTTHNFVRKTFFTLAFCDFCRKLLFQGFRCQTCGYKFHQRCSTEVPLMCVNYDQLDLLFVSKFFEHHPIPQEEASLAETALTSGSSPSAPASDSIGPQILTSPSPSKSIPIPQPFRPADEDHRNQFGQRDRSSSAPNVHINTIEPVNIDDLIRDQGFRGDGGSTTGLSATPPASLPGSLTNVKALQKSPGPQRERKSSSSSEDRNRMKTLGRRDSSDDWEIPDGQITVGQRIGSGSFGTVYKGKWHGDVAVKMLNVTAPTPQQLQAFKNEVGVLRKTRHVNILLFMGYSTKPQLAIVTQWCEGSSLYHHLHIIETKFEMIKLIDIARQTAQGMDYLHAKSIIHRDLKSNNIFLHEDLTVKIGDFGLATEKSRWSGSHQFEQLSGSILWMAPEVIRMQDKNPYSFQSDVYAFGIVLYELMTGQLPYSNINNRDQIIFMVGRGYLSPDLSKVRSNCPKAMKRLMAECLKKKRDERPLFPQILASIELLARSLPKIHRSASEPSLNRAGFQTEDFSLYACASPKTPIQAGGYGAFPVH
Experimental: as §1

Sequence of RAF proto-oncogene serine/threonine-protein kinase (P04049 whole entry): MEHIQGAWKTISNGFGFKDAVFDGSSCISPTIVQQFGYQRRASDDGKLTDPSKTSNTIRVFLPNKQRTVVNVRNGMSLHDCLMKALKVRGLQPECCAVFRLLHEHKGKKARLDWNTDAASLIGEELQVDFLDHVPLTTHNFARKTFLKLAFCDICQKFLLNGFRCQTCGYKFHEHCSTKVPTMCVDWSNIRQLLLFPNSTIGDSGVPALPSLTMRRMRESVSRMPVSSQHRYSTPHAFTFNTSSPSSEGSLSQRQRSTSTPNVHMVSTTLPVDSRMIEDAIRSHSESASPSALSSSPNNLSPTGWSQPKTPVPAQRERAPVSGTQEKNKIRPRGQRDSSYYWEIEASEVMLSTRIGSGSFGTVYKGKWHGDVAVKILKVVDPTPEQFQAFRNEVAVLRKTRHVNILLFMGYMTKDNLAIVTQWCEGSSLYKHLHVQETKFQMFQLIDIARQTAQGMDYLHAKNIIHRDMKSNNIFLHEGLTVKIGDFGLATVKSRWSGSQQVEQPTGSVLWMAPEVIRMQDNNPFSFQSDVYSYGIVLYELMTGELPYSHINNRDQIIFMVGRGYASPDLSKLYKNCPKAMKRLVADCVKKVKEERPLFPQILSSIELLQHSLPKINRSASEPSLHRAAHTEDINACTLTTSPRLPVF

pIC50 [1] | pIC50 [2] | SMILES
< 4.00 | < 4.00 | CNC(=O)c1cc(Oc2cccc3nc(Nc4ccc(Cl)c(C(F)(F)F)c4)ccc23)ccn1 [4-((2-((4-Chloro-3-(trifluoromethyl)phenyl)amino)quinolin-5-yl)oxy)-N-methylpicolinamide (6j)]
4.03 | < 4.00 | CNC(=O)c1cc(Oc2cccc3nc(Nc4cccc(C(C)(C)C)c4)ccc23)ccn1 [4-((2-((3-(Tert-butyl)phenyl)amino)quinolin-5-yl)oxy)-N-methylpicolinamide (6d)]
